Measured values taken from article PMC12320293 (2025).

Key:
[1] = system: miR-31 hairpin (pre-miR-31 residues 20-52) (RNA, miRNA) GGCAUAGCUGUUGAACUGGGAACCUGCUAUGCC; assay: STD-NMR; settings: KH2PO4 50 mM (500 mM in Methods), Mg2+ 1 mM, 10 μM RNA, 200 μM ligand
[2] = system: miR-31 hairpin (pre-miR-31 residues 20-52) (RNA, miRNA) GGCAUAGCUGUUGAACUGGGAACCUGCUAUGCC; assay: fluorescent indicator displacement; settings: KH2PO4 50 mM (500 mM in Methods), Mg2+ 1 mM, 100 μM compound, 50.9 nM RNA; for % TO-PRO-1 displaced: TO-PRO-1 500 nM displaced; for binding: TO-PRO-1 500 nM displaced by >15%
[3] = system: miR-31 hairpin (pre-miR-31 residues 20-52) (RNA, miRNA) GGCAUAGCUGUUGAACUGGGAACCUGCUAUGCC; assay: 1H-13C HSQC NMR; settings: KH2PO4 50 mM (500 mM in Methods), Mg2+ 1 mM; ND: no observable change at 10-fold ligand excess; 37 °C
[4] = system: miR-31 hairpin (pre-miR-31 residues 20-52) (RNA, miRNA) GGCAUAGCUGUUGAACUGGGAACCUGCUAUGCC; assay: fluorescence titration of dye with RNA; settings: KH2PO4 50 mM (500 mM in Methods), Mg2+ 1 mM; 500 nM TO-PRO-1, RNA 0-20 μM, pH 7.5, 2% DMSO, room temperature
[5] = system: miR-31 hairpin (pre-miR-31 residues 20-52) (RNA, miRNA) GGCAUAGCUGUUGAACUGGGAACCUGCUAUGCC; assay: 1H-13C HSQC NMR titration (chemical shift perturbation); settings: KH2PO4 50 mM (500 mM in Methods), Mg2+ 1 mM, apparent, pH 7.5, 2% DMSO, 10% D2O, 37 °C
[6] = system: miR-31 hairpin (pre-miR-31 residues 20-52) (RNA, miRNA) GGCAUAGCUGUUGAACUGGGAACCUGCUAUGCC; assay: 1H-13C HSQC NMR titration (peak volumes); settings: KH2PO4 50 mM (500 mM in Methods), Mg2+ 1 mM, apparent, pH 7.5, 2% DMSO, 10% D2O, 37 °C, 100 μM RNA

What does the source list for `COc1ccc(Nc2nc(N)nc(N)c2C#N)cc1`?
binding ([1]; pH 7.5, 25 °C): weak; % TO-PRO-1 displaced ([2]; below 15% hit criterion): 7.6 ± 1.8%; binding [3]: weak

`C[n+]1c(C=C2C=CN(CCC[N+](C)(C)C)c3ccccc32)sc2ccccc21` was tested. Which KD [4] did it give?
Its KD is 0.46 ± 0.06 µM.

What does the source list for `Cc1cccc(Nc2nc(N)nc(N)c2C#N)c1`?
binding ([1]; pH 7.5, 25 °C): weak; % TO-PRO-1 displaced ([2]; below 15% hit criterion): 7.6 ± 2.7%; binding [3]: weak

Which results are given for `Nc1cc(Nc2ccc(Br)cc2)nc(N)n1`?
KD [5]: > >1000 μM; binding ([1]; pH 7.5, 2% DMSO, 25 °C): yes; binding [2]: yes

For `Nc1ccc(-c2nc3cncc(N)c3[nH]2)c(O)c1`, which KD ([6]; excess ligand non-specific) is on record?
Its KD is 29.10 ± 0.15 µM.

And the “% TO-PRO-1 displaced” value ([2]; 2% DMSO, room temperature)?
The value was 28.6 ± 0.4%.

`Nc1ccccc1-c1nc2cnccc2[nH]1` was tested. Which KD ([5]; no saturation at 1 mM) did it give?
The KD was > >1000 μM.

What about the binding ([1]; pH 7.5, 25 °C, not detected by FID at 100 μM) of the same compound?
Its binding is “yes”.

With `Nc1nc(N)c2c(ccc3[nH]ccc32)n1` as the compound, how does the KD ([6]; non-specific at 10-fold excess) read?
Its KD is 20.64 ± 9.40 µM.

What about the binding [2] of the same compound?
The binding was “yes”.
